These results are taken from US20020128256A1, “Methods for the treatment or prevention of inflammatory diseases characterized by abnormal cell proliferation” (priority 1997, published 2002).

pIC50: −log10 of the molar value. Like-named read-outs stand apart in the source and are kept apart here.

Data set [1] has as its system NIH 3T3 mouse fibroblast cells. The experiment in a line: Mitogenic Assay (mitogen-induced cell proliferation). As to conditions: for Mitogenic Assay Inhibition (%) / inhibition at 10 µM: measured at 10 μM compound, NIH 3T3 cells; for inhibition at 10 µM: Mus musculus, read-out: Mitogenic Assay Inhibition (%); for pIC50: NIH 3T3 mouse fibroblast cells, mitogen-induced proliferation, read-out: Mitogenic Assay IC50. Type of data set: cell-based.

The target of data set [2] is T1, Gardos channel of erythrocytes (Homo sapiens, UniProt O15554).
T1 construct: endogenous in cells; host or cells: erythrocytes
Nature of the data set: Gardos Channel Assay. Type of data set: cell-based. As to conditions: for inhibition at 10 µM: read-out: Gardos Channel Assay Inhibition (%).

The test system of the next data set is HeLa. The experiment in a line: SRB antiproliferative assay, HeLa. The data set is classed as cell-based. To be noted: Homo sapiens, HeLa, 120 h, read-out: SRB assay IC50.
The test system of another data set is CaSki. The experiment in a line: SRB antiproliferative assay, CaSki. The data set is classed as cell-based. To be noted: Homo sapiens, Ca-Ski, 120 h, read-out: SRB assay IC50.
A further data set concerns MDA-MB-231. The experiment in a line: SRB antiproliferative assay, MDA-MB-231. Type of data set: cell-based. As to conditions: Homo sapiens, 120 h, read-out: SRB assay IC50.
The subject of the next data set is MCF7. Nature of the data set: SRB antiproliferative assay, MCF7. The data set is classed as cell-based. To be noted: Homo sapiens.
The next data set deals with A549. Nature of the data set: SRB antiproliferative assay, A549. The data set is classed as cell-based. To be noted: Homo sapiens.
In a further data set the test system is HTB174. The experiment in a line: SRB antiproliferative assay, HTB174. The data set is classed as cell-based. To be noted: 120 h, read-out: SRB assay IC50.
A further data set concerns HEPG2. Nature of the data set: SRB antiproliferative assay, HEPG2. The data set is classed as cell-based. As to conditions: Homo sapiens, HepG2, 120 h, read-out: SRB assay IC50.
In another data set the test system is DU-145. The experiment in a line: SRB antiproliferative assay, DU-145. The data set is classed as cell-based. As to conditions: Homo sapiens, DU-145, 120 h, read-out: SRB assay IC50.
Another data set deals with SK-MEL-28. The experiment in a line: SRB antiproliferative assay, SK-MEL-28. Type of data set: cell-based. As to conditions: Homo sapiens, SK-MEL-28, 120 h, read-out: SRB assay IC50.
For a further data set, the system named is MMRU. Nature of the data set: SRB antiproliferative assay, MMRU. Type of data set: cell-based, human. To be noted: Homo sapiens.
For the next data set, the system named is HT29. Nature of the data set: SRB antiproliferative assay, HT29. The data set is classed as cell-based. To be noted: Homo sapiens.
A further data set deals with HCT-15. Nature of the data set: SRB antiproliferative assay, HCT-15. The data set is classed as cell-based. To be noted: Homo sapiens, HCT-15, 120 h, read-out: SRB assay IC50.
The subject of a further data set is ACHN. Nature of the data set: SRB antiproliferative assay, ACHN. Type of data set: cell-based. As to conditions: Homo sapiens, ACHN, 120 h, read-out: SRB assay IC50.
The next data set relates to U118MG. The experiment in a line: SRB antiproliferative assay, U118MG. The data set is classed as cell-based. As to conditions: Homo sapiens, U-118-MG, 120 h, read-out: SRB assay IC50.
The test system of another data set is HUVEC. Nature of the data set: SRB assay, normal cells HUVEC. The data set is classed as cell-based, human. To be noted: Homo sapiens, HUVEC, 120 h, read-out: SRB assay IC50.
A further data set has as its system GM. The experiment in a line: SRB assay, normal cells GM. Type of data set: cell-based, human. To be noted: Homo sapiens, 120 h, read-out: SRB assay IC50.
A further data set has as its system L929. The experiment in a line: SRB assay, normal cells L929. Type of data set: cell-based, mouse. To be noted: Mus musculus, L929, 120 h, read-out: SRB assay IC50.
The target in the next data set is Gardos channel (Homo sapiens, UniProt O15554). Set-up: host or cells: sickle erythrocytes (printed for Clotrimazole only). To be noted: cited from earlier work.
Where [3] appears, read: erythrocytes, read-out: Gardos Channel Assay IC50.

T1 sequence (O15554 whole entry): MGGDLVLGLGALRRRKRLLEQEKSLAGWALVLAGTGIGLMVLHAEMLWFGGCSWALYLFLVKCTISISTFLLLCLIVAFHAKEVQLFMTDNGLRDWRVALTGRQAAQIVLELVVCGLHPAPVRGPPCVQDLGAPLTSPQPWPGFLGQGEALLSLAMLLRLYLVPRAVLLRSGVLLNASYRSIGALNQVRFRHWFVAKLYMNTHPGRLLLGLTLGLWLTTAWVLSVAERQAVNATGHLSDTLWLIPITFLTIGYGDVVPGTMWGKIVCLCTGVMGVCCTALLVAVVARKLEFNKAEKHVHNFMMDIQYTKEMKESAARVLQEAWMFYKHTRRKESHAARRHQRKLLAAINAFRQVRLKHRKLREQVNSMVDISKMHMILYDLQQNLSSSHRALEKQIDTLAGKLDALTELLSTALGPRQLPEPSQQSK
Gardos channel, sequence (O15554 whole entry): as above
Method for A549: (§1) The antiproliferative assays described herein were performed using standard aseptic procedures and universal precautions for the use of tissues. Cells were propagated using RPMI 1640 media (Gibco) containing 2% N 5% fetal calf serum (Biowhittaker) at 37° C., 5% CO2 and 95% humidity. The cells were passaged using Trypsin (Gibco). Prior to addition of test compound, the cells were harvested, the cell number counted and seeded at 10,000 cells/well in 100 μl 5% fetal calf serum (FCS) containing RPMI medium in 96-well plates and incubated overnight at 37° C., 5% CO2 and 95% humidity.
(§2) Following incubation, the cellular protein was determined with the ulforhodamine B (SRB) assay (Skehan P et al., 1990, J. Natl. Cancer Inst. 82:1107-1112).
Method for ACHN: as §1, §2
Method for CaSki: as §1, §2
Method for DU-145: as §1, §2
Method for GM: as §1, §2
Method for HCT-15: as §1, §2
Method for HEPG2: as §1, §2
Method for HT29: as §1, §2
Method for HTB174: as §1, §2
Method for HUVEC: as §1, §2
Method for HeLa: as §1, §2
Method for L929: as §1, §2
Method for MCF7: as §1, §2
Method for MMRU: Cells were propagated using RPMI 1640 media (Gibco) containing 2% N 5% fetal calf serum (Biowhittaker) at 37° C., 5% CO2 and 95% humidity. The cells were passaged using Trypsin (Gibco). Prior to addition of test compound, the cells were harvested, the cell number counted and seeded at 10,000 cells/well in 100 μl 5% fetal calf serum (FCS) containing RPMI medium in 96-well plates and incubated overnight at 37° C., 5% CO2 and 95% humidity.
as §2
Method for SK-MEL-28: as §1, §2
Method for U118MG: as §1, §2

Consider “2-(Ethyl-2′-(1,3-dioxolane))-1-hydroxy-3,3-diphenylindene [Compound 20]”, for which, in data set [1], the “Mitogenic Assay Inhibition (%)” value was determined as 81.0%. Also, the “Gardos Channel Assay Inhibition (%)” value in [2] (measured at 10 μM compound) was 0%.

Regarding “3,3-Diphenyl-1-indanyl α-(4-methyltoluate) ether [Compound 17]”, in data set [1], the “Mitogenic Assay Inhibition (%)” value is 76.0%. For the same compound, the “Gardos Channel Assay Inhibition (%)” value in [2] (measured at 10 μM compound) was 0%.

As for `NC1=Nc2ccccc2C1(c1ccccc1)c1ccccc1` [Compound 1], the inhibition at 10 µM in data set [1] (NIH3T3) is 97%; in [2] (measured at 10 μM compound), 98%. The pIC50 was 6.15 in [1] (NIH3T3) and 6.38 in data set [2] (setting [3]).

With `O=C1CC(c2ccccc2)(c2ccccc2)c2ccccc21` [Compound 2, 3,3-Diphenylindanone], the pIC50 in [2] (setting [3]) is 6.00. Further, the inhibition at 10 µM in [2] (measured at 10 μM compound) was determined as 100%.

For `OC1CC(c2ccccc2)(c2ccccc2)c2ccccc21` (stereo not drawn) [Compound 3, 1-Hydroxy-3,3-Diphenylindane], the melting point is 133 to 135 °C. Also, in data set [2] (setting [3]), the pIC50 was 6.09. Further, the inhibition at 10 µM in data set [2] is 100%.

In the case of `O/N=C1\CC(c2ccccc2)(c2ccccc2)c2ccccc21` [Compound 4, 1-N-Oxime-3,3-Diphenylindane], the melting point lay within 138 to 141 °C. In addition, in data set [2] (setting [3]), the pIC50 is 5.87. In addition, in [2] (measured at 10 μM compound), the inhibition at 10 µM came to 100%.

Turning to `N#CC1OC12CC(c1ccccc1)(c1ccccc1)c1ccccc12` (stereo not drawn) [Compound 5, Spiro[3,3-diphenyl-2,3-dihydro(1H)indene-1,3′-2′-cyanooxirane]], the “Mitogenic Assay Inhibition (%)” value in data set [1] came out at 29.0%. For the same compound, the “Gardos Channel Assay Inhibition (%)” value in data set [2] (measured at 10 μM compound) was found to be 67.3%.

As for `C=CCOC1c2ccccc2C(c2ccccc2)(c2ccccc2)C1CC=C` (stereo not drawn) [Compound 6, 2-(2′-Propenyl)-1-(2′-propenoxy)-3,3-diphenylindane], in data set [1], the pIC50 is 5.47 and the “Mitogenic Assay Inhibition (%)” value amounted to 90.0%. The “Gardos Channel Assay Inhibition (%)” value in data set [2] (measured at 10 μM compound) is 35.0%.

Turning to `CC(=O)OC1CC(c2ccccc2)(c2ccccc2)c2ccccc21` (stereo not drawn) [Compound 7, 1-Acetoxy-3,3-diphenylindane], the melting point came to 90 °C. Further, in data set [2], the pIC50 is 5.94. Further, the inhibition at 10 µM in data set [2] (measured at 10 μM compound) is 88%.

Regarding `N#CCC1C(=O)c2ccccc2C1(c1ccccc1)c1ccccc1` (stereo not drawn) [Compound 9, 2-cyanomethyl-3,3-diphenylindanone], the pIC50 in data set [2] (setting [3]) was 6.30. For the same compound, in [2], the inhibition at 10 µM was 100%.

In the case of `N#CCC1C(=O)c2cc(Cl)ccc2C1(c1ccc(Cl)cc1)c1ccc(Cl)cc1` (stereo not drawn) [Compound 10, 6-Chloro-2-cyanomethyl-3,3-di(4′-chlorophenyl)indanone], in data set [1] (NIH3T3), the inhibition at 10 µM amounted to 98% and the pIC50 was 5.48. Besides, the inhibition at 10 µM in [2] (measured at 10 μM compound) is 49.5%.

`NC(=O)CC1C(=O)c2ccccc2C1(c1ccccc1)c1ccccc1` (stereo not drawn) [Compound 12, 2-Acetamide-3,3-diphenylindanone] registered a melting point of 169 to 171 °C. In [2] (setting [3]), the pIC50 was 6.72. Further, in data set [2] (measured at 10 μM compound), the inhibition at 10 µM was 99.5%.

Compound `N#CCC1C(O)c2ccccc2C1(c1ccccc1)c1ccccc1` (stereo not drawn) [Compound 13, 2-Cyanomethyl-3,3-diphenylindanol] showed a melting point of 79 to 85 °C. Besides, the inhibition at 10 µM in [1] (NIH3T3) turned out to be 12%. Also, the negative logarithm of the IC50 (pIC50) in data set [2] (setting [3]) was 5.80. Besides, the inhibition at 10 µM in data set [2] (measured at 10 μM compound) amounted to 99.5%.

Turning to `NC(=O)CC1C(O)c2ccccc2C1(c1ccccc1)c1ccccc1` (stereo not drawn) [Compound 14, 2-Acetamide-3,3-diphenylindanol], the melting point was 218 to 220 °C. The inhibition at 10 µM in data set [1] (NIH3T3) worked out at 3%. Also, the pIC50 in data set [2] (setting [3]) is 5.53. In data set [2] (measured at 10 μM compound), the inhibition at 10 µM is 90.5%.

Take `COC(=O)CC1C(=O)c2ccccc2C1(c1ccccc1)c1ccccc1` (stereo not drawn) [Compound 15, 3,3-Diphenylindanone-2-methyl acetate]: in [1], the pIC50 was 5.12 and the “Mitogenic Assay Inhibition (%)” value came out at 80.0%. The pIC50 in data set [2] (setting [3]) was 5.54. The “Gardos Channel Assay Inhibition (%)” value in data set [2] (measured at 10 μM compound) is listed as 54.8%.

Turning to `c1ccc(C2(c3ccccc3)CC(OCc3ccc4ccccc4c3)c3ccccc32)cc1` (stereo not drawn) [Compound 16, 3,3-Diphenyl-1-indanyl 2-naphthylmethyl ether], the inhibition at 10 µM came out at 75% in data set [1] (NIH3T3) and 0% in data set [2] (measured at 10 μM compound).

For `Clc1ccccc1COC1CC(c2ccccc2)(c2ccccc2)c2ccccc21` (stereo not drawn) [Compound 18, 3,3-Diphenyl-1-indanyl α-(2-chlorotoluyl) ether], in [1], the “Mitogenic Assay Inhibition (%)” value is 73.0%. Further, in data set [2] (measured at 10 μM compound), the “Gardos Channel Assay Inhibition (%)” value is listed as 0%.

Compound `O=C1c2ccccc2C(c2ccccc2)(c2ccccc2)C1CCCO` (stereo not drawn) [Compound 19, 3-(3′,3′-diphenyl-2′-indanyl-1′-one)propanol] yielded a melting point of 98 °C. In addition, in [2], the pIC50 is 5.23 and the inhibition at 10 µM stood at 43.7%.

As for `COc1cc([C@@H]2c3cc4c(cc3[C@@H](O[C@@H]3O[C@@H]5CO[C@@H](C)O[C@H]5[C@H](O)[C@H]3O)[C@H]3COC(=O)[C@H]23)OCO4)cc(OC)c1O` [VP-16, Etoposide (VP-16), reference compound], the pIC50 in the data set on HeLa is above 5.90; in the data set on CaSki, 5.74; with MDA-MB-231, above 5.90; with MCF7 (MCF7, 120 h, read-out: SRB assay IC50), above 5.90; in the data set with MCF7 (MCF7, read-out: SRB IC50) it was above 5.60; in the data set on A549 (A549, 120 h, read-out: SRB assay IC50), above 5.90. The pIC50 with A549 (A549, read-out: SRB IC50) is 5.64; with HTB174 it was above 5.90; with HEPG2 it was above 5.90; with DU-145, above 5.90; with SK-MEL-28 it was above 5.90; with MMRU (120 h, read-out: SRB assay IC50), above 5.90. Also, the pIC50 with MMRU (read-out: SRB IC50) is above 5.60; with HT29 (HT-29, 120 h, read-out: SRB assay IC50), above 5.90; in the data set on HT29 (HT-29, read-out: SRB IC50), 4.70; in the data set on HCT-15, 5.89; with ACHN, above 5.90; in the data set with U118MG, 5.66. Moreover, the pIC50 was above 5.90 in the data set with HUVEC, 5.85 in the data set with GM and above 5.90 in the data set on L929.

On to `Clc1ccc(CCC(Cn2ccnc2)Sc2c(Cl)cccc2Cl)cc1` (stereo not drawn) [butoconazole], for which the “Gardos channel inhibition in vitro” value on Gardos channel is reported as “inhibit the Gardos channel in vitro”.

Consider `Clc1ccc(COC(Cn2ccnc2)c2ccc(Cl)cc2Cl)cc1` (stereo not drawn) [econazole], for which the “Gardos channel inhibition in vitro” value at Gardos channel is “inhibit the Gardos channel in vitro”.

Consider `Clc1ccc(COC(Cn2ccnc2)c2ccc(Cl)cc2Cl)c(Cl)c1` (stereo not drawn) [miconazole], for which the “Gardos channel inhibition in vitro” value at Gardos channel is given as “inhibit the Gardos channel in vitro”.
